# Data from PubChem BioAssay AID206 (DTP/NCI, 2004).
# Several values for one entry are separate records, joined by “and”; a condition that tells them apart may be missing. Equal values may be shown once. Results filed as inconclusive are left out.
# Tested on: nude mice, HT29 intrarenal xenograft, tumor weight T/C
# Assay: NCI In Vivo Anticancer Drug Screen. Data for tumor model HT29;CX-1 Human Adenocarcinoma (MER+) (intrarenal inoculation) in NU/NU Swiss (nude) mice
# Conditions: endpoint: mean tumor weight change, higher = larger tumour
# In short: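 Readout: treated/vehicle-control ratio of the measured endpoint (tumor size or survival) in transplanted-tumor mice.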
# [1] = dose: 150.0 mg/kg/injection, schedule: Q04DX004 (sc), vehicle: saline with Tween-80
# [2] = dose: 300.0 mg/kg/injection, schedule: Q04DX004 (sc), vehicle: saline with Tween-80
# [3] = dose: 600.0 mg/kg/injection, schedule: Q04DX004 (sc), vehicle: saline with Tween-80
# [4] = dose: 1200.0 mg/kg/injection, schedule: Q04DX004 (sc), vehicle: saline with Tween-80
# [5] = dose: 50.0 mg/kg/injection, schedule: Q04DX004 (sc), vehicle: saline with Tween-80
structure (smiles),measurement,setting,value
C[C@@H]1C[C@H]2[C@@H]3CCC4=CC(=O)C=C[C@]4(C)[C@@]3(F)[C@@H](O)C[C@]2(C)[C@@]1(O)C(=O)CO,T/C,"dose: 1.56 mg/kg/injection, schedule: Q01DX010 (sc), vehicle: Klucel (hydroxypropylcellulose) (HPC)",62 % of control
same,T/C,"dose: 3.13 mg/kg/injection, schedule: Q01DX010 (sc), vehicle: Klucel (hydroxypropylcellulose) (HPC)",40 % of control
same,T/C,"dose: 6.25 mg/kg/injection, schedule: Q01DX010 (sc), vehicle: Klucel (hydroxypropylcellulose) (HPC)",42 % of control
same,T/C,"dose: 12.5 mg/kg/injection, schedule: Q01DX010 (sc), vehicle: Klucel (hydroxypropylcellulose) (HPC)",39 % of control
CC[C@](C)(O)C(=O)O[C@H]1C(=O)O[C@@H]2C[C@H]3C(C)=CC(=O)[C@@H](O)[C@]3(C)[C@H]3[C@@]4(O)OC[C@]32[C@@H]1[C@@H](C)[C@H]4O,T/C,"dose: 0.25 mg/kg/injection, schedule: Q01DX010 (sc), vehicle: Klucel (hydroxypropylcellulose) (HPC)",55 % of control
same,T/C,"dose: 0.5 mg/kg/injection, schedule: Q01DX010 (sc), vehicle: Klucel (hydroxypropylcellulose) (HPC)",80 % of control
same,T/C,"dose: 1.0 mg/kg/injection, schedule: Q01DX010 (sc), vehicle: Klucel (hydroxypropylcellulose) (HPC)",61 % of control
same,T/C,"dose: 2.0 mg/kg/injection, schedule: Q01DX010 (sc), vehicle: Klucel (hydroxypropylcellulose) (HPC)",73 % of control
CC(C)[NH-].CC(C)[NH-].[Cl][Pt+2][Cl],T/C,"dose: 37.5 mg/kg/injection, schedule: Q04DX004 (sc), vehicle: dextrose",58 % of control
same,T/C,"dose: 75.0 mg/kg/injection, schedule: Q04DX004 (sc), vehicle: dextrose",43 % of control
same,T/C,"dose: 150.0 mg/kg/injection, schedule: Q04DX004 (sc), vehicle: dextrose",21 % of control
O=C([CH-]C(=O)C(F)(F)F)c1ccccc1.O=C([CH-]C(=O)C(F)(F)F)c1ccccc1.O=C([CH-]C(=O)C(F)(F)F)c1ccccc1.O=C([CH-]C(=O)C(F)(F)F)c1ccccc1.[Eu+3].c1ccncc1,T/C,"dose: 800.0 mg/kg/injection, schedule: Q01DX010 (sc), vehicle: Klucel (hydroxypropylcellulose) (HPC)",10 % of control and 20 % of control (2×)
CN(C1=NS(=O)(=O)N=C(N(C)c2ccccc2)O1)c1ccccc1,T/C,"dose: 225.0 mg/kg/injection, schedule: Q04DX004 (sc), vehicle: Klucel (hydroxypropylcellulose) (HPC)",95 % of control
same,T/C,"dose: 450.0 mg/kg/injection, schedule: Q04DX004 (sc), vehicle: Klucel (hydroxypropylcellulose) (HPC)",153 % of control
same,T/C,"dose: 1800.0 mg/kg/injection, schedule: Q04DX004 (sc), vehicle: Klucel (hydroxypropylcellulose) (HPC)",168 % of control
CC(=O)N(C)O,T/C,[1],88 % of control
same,T/C,[2],71 % of control
same,T/C,[3],45 % of control
O=[N+]([O-])c1ccc(Sc2ccncn2)c([N+](=O)[O-])c1,T/C,[1],44 % of control
same,T/C,[2],85 % of control
same,T/C,[3],85 % of control and 100 % of control
same,T/C,[4],73 % of control
same,T/C,"dose: 2400.0 mg/kg/injection, schedule: Q04DX004 (sc), vehicle: saline with Tween-80",86 % of control
C[Si](C)(C)O/C=C1/CCOC1=O,T/C,"dose: 100.0 mg/kg/injection, schedule: Q04DX004 (sc), vehicle: suspension in saline",98 % of control
same,T/C,"dose: 200.0 mg/kg/injection, schedule: Q04DX004 (sc), vehicle: suspension in saline",93 % of control
same,T/C,"dose: 800.0 mg/kg/injection, schedule: Q04DX004 (sc), vehicle: suspension in saline",107 % of control
O=c1[nH]cnc2c1ccn2C1OC(CO)C(O)C1O (stereo not drawn),T/C,"dose: 5.0 mg/kg/injection, schedule: Q04DX004 (sc), vehicle: saline",48 % of control
same,T/C,"dose: 10.0 mg/kg/injection, schedule: Q04DX004 (sc), vehicle: saline",61 % of control
same,T/C,"dose: 20.0 mg/kg/injection, schedule: Q04DX004 (sc), vehicle: saline",69 % of control
same,T/C,"dose: 40.0 mg/kg/injection, schedule: Q04DX004 (sc), vehicle: saline",97 % of control
CCC1(O)CC2CN(CCc3c([nH]c4ccccc34)C(C(=O)OC)(c3cc4c(cc3OC)N(C)C3C(O)(C(=O)NCCSSCCNC(=O)C5(O)C(O)C6(CC)C=CCN7CCC8(c9cc(C%10(C(=O)OC)CC%11CN(CCc%12c%10[nH]c%10ccccc%12%10)CC(O)(CC)C%11)c(OC)cc9N(C)C58)C76)C(O)C5(CC)C=CCN6CCC43C65)C2)C1 (stereo not drawn),T/C,"dose: 0.38 mg/kg/injection, schedule: Q04DX004 (sc), vehicle: suspension in saline",85 % of control
same,T/C,"dose: 0.75 mg/kg/injection, schedule: Q04DX004 (sc), vehicle: saline",39 % of control
same,T/C,"dose: 0.75 mg/kg/injection, schedule: Q04DX004 (sc), vehicle: suspension in saline",84 % of control
same,T/C,"dose: 1.5 mg/kg/injection, schedule: Q04DX004 (sc), vehicle: saline",22 % of control and 29 % of control
same,T/C,"dose: 1.5 mg/kg/injection, schedule: Q04DX004 (sc), vehicle: suspension in saline",44 % of control
same,T/C,"dose: 3.0 mg/kg/injection, schedule: Q04DX004 (sc), vehicle: saline",-5 % of control
same,T/C,"dose: 3.0 mg/kg/injection, schedule: Q04DX004 (sc), vehicle: suspension in saline",55 % of control
same,T/C,"dose: 6.0 mg/kg/injection, schedule: Q04DX004 (sc), vehicle: suspension in saline",51 % of control
CC(=O)Oc1c(C)[nH]ccc1=O,T/C,"dose: 600.0 mg/kg/injection, schedule: Q04DX004 (sc), vehicle: suspension in saline",112 % of control
same,T/C,"dose: 1200.0 mg/kg/injection, schedule: Q04DX004 (sc), vehicle: suspension in saline",77 % of control
C[C@@]12C(=O)OC(=O)[C@]1(C)[C@H]1CC[C@@H]2O1,T/C,"dose: 1.25 mg/kg/injection, schedule: Q04DX004 (sc), vehicle: Klucel (hydroxypropylcellulose) (HPC)",87 % of control
same,T/C,"dose: 2.5 mg/kg/injection, schedule: Q04DX004 (sc), vehicle: Klucel (hydroxypropylcellulose) (HPC)",75 % of control
same,T/C,"dose: 5.0 mg/kg/injection, schedule: Q04DX004 (sc), vehicle: Klucel (hydroxypropylcellulose) (HPC)",89 % of control
C[n+]1c(/C=N/NC(N)=S)ccc2ccccc21,T/C,[1],75 % of control
same,T/C,[3],66 % of control
same,T/C,[4],72 % of control
Nc1nc(N)c2c(ccc3c2ccn3Cc2cccc([N+](=O)[O-])c2)n1,T/C,"dose: 6.25 mg/kg/injection, schedule: Q04DX004 (sc), vehicle: saline with Tween-80",97 % of control
same,T/C,"dose: 12.5 mg/kg/injection, schedule: Q04DX004 (sc), vehicle: saline with Tween-80",78 % of control
same,T/C,"dose: 25.0 mg/kg/injection, schedule: Q04DX004 (sc), vehicle: saline with Tween-80",57 % of control
same,T/C,[5],77 % of control
same,T/C,"dose: 75.0 mg/kg/injection, schedule: Q04DX004 (sc), vehicle: saline with Tween-80",157 % of control
same,T/C,[1],54 % of control
Cn1c(=O)[nH]c2nncnc2c1=O,T/C,"dose: 15.0 mg/kg/injection, schedule: Q04DX004 (sc), vehicle: water",79 % of control and 101 % of control
same,T/C,"dose: 60.0 mg/kg/injection, schedule: Q04DX004 (sc), vehicle: water",78 % of control and 86 % of control
same,T/C,"dose: 120.0 mg/kg/injection, schedule: Q04DX004 (sc), vehicle: water",19 % of control
O=c1cc(CCl)[nH]nc1CCl,T/C,"dose: 25.0 mg/kg/injection, schedule: Q01DX010 (sc), vehicle: saline with Tween-80",90 % of control
same,T/C,"dose: 50.0 mg/kg/injection, schedule: Q01DX010 (sc), vehicle: saline with Tween-80",156 % of control
same,T/C,"dose: 100.0 mg/kg/injection, schedule: Q01DX010 (sc), vehicle: saline with Tween-80",90 % of control
same,T/C,"dose: 200.0 mg/kg/injection, schedule: Q01DX010 (sc), vehicle: saline with Tween-80",27 % of control
CCOC(=O)CNC(=O)CCCCSc1ncnc2nc[nH]c12,T/C,"dose: 225.0 mg/kg/injection, schedule: Q04DX004 (sc), vehicle: saline with Tween-80",162 % of control
same,T/C,"dose: 450.0 mg/kg/injection, schedule: Q04DX004 (sc), vehicle: saline with Tween-80",103 % of control
O=Cc1ccccc1,T/C,"dose: 200.0 mg/kg/injection, schedule: Q04DX004 (sc), vehicle: Klucel (hydroxypropylcellulose) (HPC)",119 % of control
same,T/C,"dose: 400.0 mg/kg/injection, schedule: Q04DX004 (sc), vehicle: Klucel (hydroxypropylcellulose) (HPC)",107 % of control
ClC1=C(Cl)C(Cl)=C(Cl)C1=Cc1ccccc1,T/C,[5],104 % of control
N/C=N/O,T/C,"dose: 400.0 mg/kg/injection, schedule: Q01DX010 (sc), vehicle: saline",111 % of control
N#CC(=C1C=CC(=NO)C=C1)c1ccc(Cl)cc1,T/C,[5],80 % of control
same,T/C,"dose: 100.0 mg/kg/injection, schedule: Q04DX004 (sc), vehicle: saline with Tween-80",90 % of control
same,T/C,"dose: 400.0 mg/kg/injection, schedule: Q04DX004 (sc), vehicle: saline with Tween-80",113 % of control
